According to patent US20250144067A1, “PERSONALIZED STARVATION THERAPY FOR CANCER” (Faeth Therapeutics, Inc., priority 2021, published 2025):
Where a name gives a salt, the structure may show the parent alone. Read-outs that look alike come from different tables or passages of the source.

Columns and labels:
[1] = test system: NCI-H292 lung cancer cells; test: FDA drug screening, complete media vs cholesterol-free media without statin (TABLE 1); assay type: cell-based, human
[2] = test system: NCI-H292 lung cancer cells; test: FDA drug screening, complete media vs cholesterol-free media with simvastatin (TABLE 2); assay type: cell-based, human
[3] = Complete minus Cholesterol-free, >0 enhanced anti-cancer activity, about 0 neutral, <0 antagonist
[4] = NCI-H292 cells, cholesterol-free media without statin, FDA drug library screen
[5] = NCI-H292 cells, complete media, FDA drug library screen
[6] = NCI-H292 cells, FDA drug library screen, cholesterol-free media with simvastatin 0.04 μM
[7] = NCI-H292 cells, FDA drug library screen, complete media
[8] = complete media minus cholesterol-free media + simvastatin, >0 enhanced anti-cancer activity, about 0 neutral, <0 antagonist
[9] = Complete minus Cholesterol-free, greater than 0 enhanced anti-cancer activity, about 0 neutral, below 0 antagonist
[10] = NCI-H292 cells, FDA drug library screen, cholesterol-free media without statin
[11] = NCI-H292 cells, cholesterol-free media with simvastatin 0.04 μM, cell growth value in FDA drug screen
[12] = NCI-H292 cells, complete media, cell growth value in FDA drug screen
[13] = Complete minus Cholesterol-free, […]
[14] = NCI-H292 cells, cholesterol-free media without statin
[15] = NCI-H292 cells, drug in cholesterol-free media with simvastatin 0.04 μM
[16] = NCI-H292 cells, drug in complete media
[17] = complete media vs cholesterol-free media + simvastatin (0.04 μM), […]
[18] = complete media vs cholesterol-free media + simvastatin (0.04 μM), >0 enhanced anti-cancer activity, about 0 neutral, <0 antagonist
[19] = NCI-H292 cells, cholesterol-free media with simvastatin 0.04 μM, FDA drug library screen (TABLE 2)
[20] = NCI-H292 cells, complete media, FDA drug library screen (TABLE 2)
[21] = complete media minus cholesterol-free media + simvastatin (0.04 μM), >0 enhanced anti-cancer activity, about 0 neutral, <0 antagonist
[22] = complete vs cholesterol-free media, greater than 0 enhanced anti-cancer activity, about 0 neutral, below 0 antagonists
[23] = NCI-H292 cells, FDA library drug in cholesterol-free media with simvastatin 0.04 μM
[24] = NCI-H292 cells, FDA library drug in complete media
[25] = Complete minus Cholesterol-free, greater than 0 enhanced anti-cancer activity, about 0 neutral, below 0 antagonists
[26] = NCI-H292 cells in cholesterol-free media without statin
[27] = NCI-H292 cells in complete media

COC(=O)N[C@H](C(=O)N1CCC[C@H]1c1nc(-c2ccc(-c3ccc(-c4c[nH]c([C@@H]5CCCN5C(=O)[C@@H](NC(=O)OC)C(C)C)n4)cc3)cc2)c[nH]1)C(C)C [Daclatasvir]
Difference [1, 3]: 0.04
Cholesterol-free [1, 4]: 0.703
Complete [1, 5]: 0.7437
Cholesterol-free media + simvastatin (0.04 μM) [2, 6]: 0.9463
Complete Media [2, 7]: 1.136
Difference [2, 8]: 0.19

COc1cc2ncnc(Nc3ccc(F)c(Cl)c3)c2cc1NC(=O)/C=C/CN1CCCCC1 [Dacomitinib]
Difference [1, 9]: −0.12
Cholesterol-free [1, 10]: 0.3597
Complete [1, 7]: 0.2371
Cholesterol-free media + simvastatin (0.04 μM) [2, 11]: 0.3301
Complete Media [2, 12]: 0.437
Difference [2, 8]: 0.11

O=c1c(-c2ccc(O)cc2)coc2cc(O)ccc12 [Daidzein]
Difference [1, 3]: −0.02
Cholesterol-free [1, 4]: 1.1
Complete [1, 5]: 1.082
Cholesterol-free media + simvastatin (0.04 μM) [2, 6]: 1.306
Complete Media [2, 7]: 1.614
Difference [2, 8]: 0.31

O=c1c(-c2ccc(O)cc2)coc2cc(O[C@@H]3O[C@H](CO)[C@@H](O)[C@H](O)[C@H]3O)ccc12 [Daidzin]
Difference [1, 13]: −0.25
Cholesterol-free [1, 14]: 1.084
Complete ([1]; NCI-H292 cells, complete media): 0.8381
Cholesterol-free media + simvastatin (0.04 μM) [2, 15]: 1.011
Complete Media [2, 16]: 0.8061
Difference [2, 17]: −0.20

CN[C@H]1C(=O)N[C@@H]2Cc3ccc(cc3)Oc3cc4cc(c3O[C@@H]3O[C@H](C(=O)O)[C@@H](O)[C@H](O)[C@H]3NC(=O)CCCCCCCCC(C)C)Oc3ccc(cc3Cl)[C@@H](O)[C@@H]3NC(=O)[C@H](NC(=O)[C@@H]4NC(=O)[C@@H](NC2=O)c2cc(cc(O)c2Cl)Oc2cc1ccc2O)c1ccc(O)c(c1)-c1c(O[C@H]2O[C@H](CO)[C@@H](O)[C@H](O)[C@@H]2O)cc(O)cc1[C@@H](C(=O)NCCCN(C)C)NC3=O [Dalbavancin (hydrochloride)]
Difference [1, 13]: −0.27
Cholesterol-free [1, 14]: 1.639
Complete ([1]; NCI-H292 cells, complete media): 1.366
Cholesterol-free media + simvastatin (0.04 μM) [2, 15]: 1.058
Complete Media [2, 16]: 0.8779
Difference [2, 17]: −0.18

C#C[C@]1(O)CC[C@H]2[C@@H]3CCC4=Cc5oncc5C[C@]4(C)[C@H]3CC[C@@]21C [Danazol]
Difference [1, 3]: −0.06
Cholesterol-free [1, 4]: 0.8249
Complete [1, 5]: 0.7604
Cholesterol-free media + simvastatin (0.04 μM) [2, 6]: 1.056
Complete Media [2, 7]: 0.9458
Difference [2, 18]: −0.11

CC(C)(C)OC(=O)N[C@H]1CCCCC/C=C\[C@@H]2C[C@@]2(C(=O)NS(=O)(=O)C2CC2)NC(=O)[C@@H]2C[C@@H](OC(=O)N3Cc4cccc(F)c4C3)CN2C1=O [Danoprevir]
Cholesterol-free [1, 4]: 0.802
Complete [1, 5]: 1.257
Difference ([1]; complete vs cholesterol-free media, >0 enhanced anti-cancer activity, about 0 neutral, <0 antagonist): 0.45
Cholesterol-free media + simvastatin (0.04 μM) [2, 19]: 0.8835
Complete Media [2, 20]: 0.8799
Difference [2, 21]: 0.00

O=C1c2cccc(O)c2C(=O)c2c(O)cccc21 [Danthron]
Difference [1, 9]: −0.15
Cholesterol-free [1, 10]: 0.9427
Complete [1, 7]: 0.7921
Cholesterol-free media + simvastatin (0.04 μM) [2, 15]: 1.634
Complete Media [2, 16]: 1.469
Difference [2, 18]: −0.16

O.O.O.O.O.O.O.O=C1N=C([O-])CN1/N=C/c1ccc(-c2ccc([N+](=O)[O-])cc2)o1.O=C1N=C([O-])CN1/N=C/c1ccc(-c2ccc([N+](=O)[O-])cc2)o1.[Na+].[Na+] [Dantrolene (sodium hemiheptahydrate)]
Cholesterol-free [1, 14]: 1.274
Complete ([1]; NCI-H292 cells, complete media): 0.9468
Difference [1, 22]: −0.33
Cholesterol-free media + simvastatin (0.04 μM) [2, 23]: 1.565
Complete Media [2, 24]: 1.218
Difference [2, 18]: −0.35

CCOc1ccc(Cc2cc([C@@H]3O[C@H](CO)[C@@H](O)[C@H](O)[C@H]3O)ccc2Cl)cc1 [Dapagliflozin]
Difference [1, 9]: −0.18
Cholesterol-free [1, 10]: 1.052
Complete [1, 7]: 0.875
Cholesterol-free media + simvastatin (0.04 μM) [2, 23]: 1.024
Complete Media [2, 24]: 0.6919
Difference [2, 18]: −0.33

O=c1ccc2ccc(O)c(O)c2o1 [Daphnetin]
Difference [1, 3]: −0.27
Cholesterol-free [1, 14]: 1.207
Complete ([1]; NCI-H292 cells, complete media): 0.9359
Cholesterol-free media + simvastatin (0.04 μM) [2, 15]: 1.124
Complete Media [2, 16]: 0.9139
Difference [2, 18]: −0.21

Cc1ccccc1N1CCN(CCc2nnc3n2CCCC3)CC1 [Dapiprazole (hydrochloride)]
Difference [1, 25]: −0.49
Cholesterol-free [1, 26]: 1.532
Complete [1, 27]: 1.043
Cholesterol-free media + simvastatin (0.04 μM) [2, 23]: 1.337
Complete Media [2, 24]: 1.063
Difference [2, 18]: −0.27

CN(C)[C@@H](CCOc1cccc2ccccc12)c1ccccc1 [Dapoxetine (hydrochloride)]
Cholesterol-free [1, 14]: 1.092
Complete ([1]; NCI-H292 cells, complete media): 0.7794
Difference [1, 22]: −0.31
Cholesterol-free media + simvastatin (0.04 μM) [2, 19]: 1.079
Complete Media [2, 20]: 1.031
Difference [2, 21]: −0.05

Nc1ccc(S(=O)(=O)c2ccc(N)cc2)cc1 [Dapsone]
Difference [1, 25]: −0.48
Cholesterol-free [1, 26]: 1.475
Complete [1, 27]: 0.9984
Cholesterol-free media + simvastatin (0.04 μM) [2, 6]: 0.9689
Complete Media [2, 7]: 1.132
Difference [2, 8]: 0.16

CCCCCCCCCC(=O)N[C@@H](Cc1c[nH]c2ccccc12)C(=O)N[C@H](CC(N)=O)C(=O)N[C@@H](CC(=O)O)C(=O)N[C@@H]1C(=O)NCC(=O)N[C@@H](CCCN)C(=O)N[C@@H](CC(=O)O)C(=O)N[C@H](C)C(=O)N[C@@H](CC(=O)O)C(=O)NCC(=O)N[C@H](CO)C(=O)N[C@@H]([C@H](C)CC(=O)O)C(=O)N[C@@H](CC(=O)c2ccccc2N)C(=O)O[C@@H]1C [Daptomycin]
Cholesterol-free [1, 14]: 1.025
Complete ([1]; NCI-H292 cells, complete media): 0.6476
Difference ([1]; complete vs cholesterol-free media, […]): −0.38
Cholesterol-free media + simvastatin (0.04 μM) [2, 6]: 1.147
Complete Media [2, 7]: 1.33
Difference ([2]; complete media minus cholesterol-free media + simvastatin, […]): 0.18

NC(=O)C(c1ccccc1)(c1ccccc1)[C@@H]1CCN(CCc2ccc3c(c2)CCO3)C1 [Darifenacin (hydrobromide)]
Difference [1, 9]: −0.11
Cholesterol-free [1, 10]: 1.186
Complete [1, 7]: 1.075
Cholesterol-free media + simvastatin (0.04 μM) [2, 6]: 1.197
Complete Media [2, 7]: 1.073
Difference [2, 18]: −0.12

CC(O)c1cc(C(=O)N[C@@H](C)Cn2ccc(-c3ccc(C#N)c(Cl)c3)n2)[nH]n1 (some centres unmarked) [Darolutamide]
Difference [1, 3]: −0.20
Cholesterol-free [1, 14]: 1.263
Complete ([1]; NCI-H292 cells, complete media): 1.061
Cholesterol-free media + simvastatin (0.04 μM) [2, 11]: 0.9075
Complete Media [2, 12]: 0.9966
Difference [2, 8]: 0.09

CC(C)CN(C[C@@H](O)[C@H](Cc1ccccc1)NC(=O)O[C@H]1CO[C@H]2OCC[C@H]21)S(=O)(=O)c1ccc(N)cc1 [Darunavir (Ethanolate)]
Cholesterol-free [1]: 0.8952
Difference [1]: 0.25
Cholesterol-free media + simvastatin (0.04 μM) [2]: 1.545
Complete Media [2]: 1.286
Difference [2]: −0.26

CC(C)CN(C[C@@H](O)[C@H](Cc1ccccc1)NC(=O)O[C@H]1CO[C@H]2OCC[C@H]21)S(=O)(=O)c1ccc(N)cc1 [Darunavir]
Cholesterol-free [1]: 1.103
Complete [1]: 0.8067
Difference [1]: −0.30
Cholesterol-free media + simvastatin (0.04 μM) [2]: 0.9174
Complete Media [2]: 0.7724
Difference [2]: −0.14

COc1c(-c2ccc3cc(NS(C)(=O)=O)ccc3c2)cc(-n2ccc(=O)[nH]c2=O)cc1C(C)(C)C [Dasabuvir]
Cholesterol-free [1, 14]: 1.225
Complete ([1]; NCI-H292 cells, complete media): 0.8287
Difference [1, 22]: −0.40
Cholesterol-free media + simvastatin (0.04 μM) [2, 19]: 1.1
Complete Media [2, 20]: 1.064
Difference [2, 21]: −0.04

Cc1nc(Nc2ncc(C(=O)Nc3c(C)cccc3Cl)s2)cc(N2CCN(CCO)CC2)n1 [Dasatinib (hydrochloride)]
Difference [1, 9]: −0.10
Cholesterol-free [1, 10]: 0.3831
Complete [1, 7]: 0.2841
Cholesterol-free media + simvastatin (0.04 μM) [2, 19]: 0.2818
Complete Media [2, 20]: 0.268
Difference [2, 21]: −0.01

Cc1nc(Nc2ncc(C(=O)Nc3c(C)cccc3Cl)s2)cc(N2CCN(CCO)CC2)n1 [Dasatinib]
Difference [1, 9]: −0.15
Cholesterol-free [1, 10]: 0.4806
Complete [1, 7]: 0.3333
Cholesterol-free media + simvastatin (0.04 μM) [2, 6]: 0.3286
Complete Media [2, 7]: 0.514
Difference [2, 8]: 0.19

COc1cccc2c1C(=O)c1c(O)c3c(c(O)c1C2=O)C[C@@](O)(C(C)=O)C[C@@H]3O[C@H]1C[C@H](N)[C@H](O)[C@H](C)O1 [Daunorubicin (Hydrochloride)]
Difference [1, 13]: −0.01
Cholesterol-free [1, 4]: 0.01433
Complete [1, 5]: 0.008412
Cholesterol-free media + simvastatin (0.04 μM) [2, 19]: 0.006543
Complete Media [2, 20]: −0.007495
Difference ([2]; complete media minus cholesterol-free media + simvastatin (0.04 μM), […]): −0.01
